# Key:
# STK33 [1] = molecular target: T1, STK33 (Homo sapiens, UniProt Q9BYT3); assay: NanoBRET target engagement intracellular kinase assay; assay type: cell-based; parameters: host or cells: HEK293 (HEK293T cultured); conditions: for IC50: HEK293 cells, 2 hours incubation
# Method: (§1) NanoBRET Target Engagement intracellular kinase assay. HEK293T cells were cultured in […]
# (§2) The cell line underwent authentication by short tandem repeat (STR) profiling at Cytogenetics and Cell Authentication Core (CCAC) at MD Anderson Cancer Center. NanoBRET Target Engagement intracellular kinase assay, K-10 assay (Cat. # N2641), K-9 assay (Cat. # N2631), transfection reagent FuGENE HD (Cat. # E2311), transfection carrier DNA (Cat. # E4881), NanoLuc-STK33 fusion vector (Cat. # NV2111), NanoLuc-RET fusion vector (Cat. # NV1951), NanoLuc-CLK1 fusion vector (Cat. # NV1131), NanoLuc-CLK2 fusion vector (Cat. # NV1141), and NanoLuc-CLK4 fusion vector (Cat. # NV1151) were purchased from Promega. The measurement of test compound engagement with cellular target protein was performed in a 384-well format according to manufacturer’s instructions. HEK293 cells were transiently transfected with NanoLuc (STK33, RET, CLK1, CLK2, and CLK4) fusion vectors. After 36 hours of transfection, cells were treated with a fixed concentration of tracer (recommended by Promega) followed by compounds (inhibitors) for 2 hours of incubation. To determine the test compound […]
# (§3) 0.4 nM at a fixed tracer concentration. Staurosporine was measured in parallel as a positive control.
# (§4) Freshly prepared NanoBRET Nano-Glo substrate plus extracellular NanoLuc inhibitor was then added to initiate the subsequent bioluminescence resonance energy transfer (BRET) measurements using a CLARIOstar Plus BMG LABTECH plate reader. Data analysis was done by measuring the ratio of acceptor emission to donor emission (BRET ratio) and normalized by subtracting no-tracer-control-background. IC50 values were obtained by nonlinear regression using a four-parameter equation in GraphPad Prism 7 (San Diego, CA).
# STK33 [2] = molecular target: T1, STK33; assay: Kinase assay screening against STK33 at 500 nM; assay type: biochemical; parameters: purchased SelectScreen Services (ThermoFisher)
# [3] = Metabolic stability assay in liver microsomes (MLM); assay type: in vitro ADME, mouse; conditions: 2.0 µM, 0.5 mg protein/mL, NADPH, data >60 min is an extrapolated estimate; for half-life at 2 µM: mouse, liver microsomes, read-out: Metabolic stability MLM, t1/2
# Method: (§5) Metabolic stability assay in liver microsomes. The stabilities of CDD-2110, CDD-2211, CDD-2212, CDD-2807, and CDD-3348 in liver microsomes with/without Uridine Diphosphate Glucuronic Acid (UDP-GA, a cofactor of UDP-glucuronosyltransferases) were performed and half-life was calculated as previously reported (36). Briefly, each CDD compound (2.0 μM) was incubated in the mouse or human liver microsomes (0.5 mg protein/mL) at 37°C in 1× PBS fortified with NADPH (1.0 mM) and with/without UDP-GA (2.5 mM). Alamethicin (25 µg/mL) as a pore forming agent was used for the glucuronidation (Table S2A). The samples were collected at specific time-points 0, 30, and 60 min in duplicate. The reactions were terminated by adding equivalent volume of ice-cold methanol (CH3OH) and vortexed. After centrifugation at 15000 g for 10 min, 3.0 μL of the supernatant was analyzed by Thermo TSQ Quantis MS coupled with a Thermo Vanquish UHPLC (San Jose, CA) equipped with a Luna C18 column (1 mm × 50 mm, 1.6 µm, Phenomenex, Torrance, CA). The column temperature was maintained at 40°C. CDD-2807 was monitored under the selected reaction monitoring (SRM) mode coupled with a positive electrospray ionization (ESI) source. The SRM ion pairs were 447→321 for CDD-2807.
# [4] = Metabolic stability assay in liver microsomes (HLM); assay type: in vitro ADME, human; conditions: 2.0 µM, 0.5 mg protein/mL, NADPH, data >60 min is an extrapolated estimate; for half-life at 2 µM: human, liver microsomes, read-out: Metabolic stability HLM, t1/2
# Method: as §5
# STK33 [5] = molecular target: T1, STK33; assay: LanthaScreen binding assay (ThermoFisher SelectScreen); parameters: purchased SelectScreen Services (ThermoFisher)
# Description: (§6) In vitro biochemical assays. Several small molecule assays were outsourced to SelectScreen Services (ThermoFisher) for STK33 and for off-target kinases (data sets are available on demand).
# (§7) These assays are LanthaScreen (binding assay) and Z’-LYTE (activity assay). Dose-responses were done with at least 5 different concentrations in duplicates, and parameters were optimized by calculations described below and provided with standard errors.
# (§8) Calculation of Kd values for kinase inhibitors that bind to the ATP pocket of a kinase from LanthaScreen binding data. DynaFit (71) was used to fit complex equilibria where a tracer is displaced by a dilution series of a kinase inhibitor. This method relies on the concentration of inhibitor, as well as the concentration of kinase and tracer, and Kd of the tracer. The latter three parameters are tabulated by ThermoFisher for each kinase in the LanthaScreen assay panel. […]
# Since Kd and Ki values are defined the same way, in other words, Kd = [E] [I] / [EI] = Ki, Kd and Ki values can be compared. […]
# CLK2 [6] = molecular target: T2, CLK2 (Homo sapiens, UniProt P49760); assay: Z'-LYTE activity assay (ThermoFisher SelectScreen); assay type: biochemical; parameters: purchased SelectScreen Services (ThermoFisher); conditions: [ATP] = Kmapp
# Description: as §6
# (§9) These assays are LanthaScreen (binding assay) and Z’-LYTE (activity assay). Dose-responses were done with at least 5 different concentrations in duplicates, and parameters were optimized by calculations described below and provided with standard errors. […]
# (§10) Calculation of Ki values for kinase inhibitors from Z’-LYTE inhibition data. The Morrison equation with [ATP] = Kmapp for competitive inhibition (GraphPad Prism 7, San Diego, CA) was used to get Ki values. Since Kd and Ki values are defined the same way, in other words, Kd = [E] [I] / [EI] = Ki, Kd and Ki values can be compared. […]
# CLK1 [7] = molecular target: T3, CLK1 (Homo sapiens, UniProt P49759); assay: Z'-LYTE activity assay (ThermoFisher SelectScreen); assay type: biochemical; parameters: purchased SelectScreen Services (ThermoFisher); conditions: [ATP] = Kmapp
# Description: as §6, §9, §10
# RET [8] = molecular target: T4, RET (Homo sapiens, UniProt P07949); assay: Z'-LYTE activity assay (ThermoFisher SelectScreen); assay type: biochemical; parameters: purchased SelectScreen Services (ThermoFisher); conditions: [ATP] = Kmapp
# Description: as §6, §9, §10
# CLK4 [9] = molecular target: T5, CLK4 (Homo sapiens, UniProt Q9HAZ1); assay: LanthaScreen binding assay (ThermoFisher SelectScreen); parameters: purchased SelectScreen Services (ThermoFisher)
# Description: as §6, §7, §8
# CLK4 [10] = molecular target: T5, CLK4; assay: NanoBRET target engagement intracellular kinase assay; assay type: cell-based; parameters: host or cells: HEK293 (HEK293T cultured); conditions: for IC50: HEK293 cells, 2 hours incubation; for Fold NanoBRET IC50 CLK4 over STK33 (in parentheses): selectivity vs STK33
# Method: as §1, §2, §3, §4
# CLK2 [11] = molecular target: T2, CLK2; assay: as above; assay type: cell-based; parameters: host or cells: HEK293 (HEK293T cultured); conditions: for IC50: HEK293 cells, 2 hours incubation; for Fold NanoBRET IC50 CLK2 over STK33 (in parentheses): selectivity vs STK33
# Method: as §1, §2, §3, §4
# CLK1 [12] = molecular target: T3, CLK1; assay: as above; assay type: cell-based; parameters: host or cells: HEK293 (HEK293T cultured); conditions: for IC50: HEK293 cells, 2 hours incubation; for Fold NanoBRET IC50 CLK1 over STK33 (in parentheses): selectivity vs STK33
# Method: as §1, §2, §3, §4
# RET [13] = molecular target: T4, RET; assay: as above; assay type: cell-based; parameters: host or cells: HEK293 (HEK293T cultured); conditions: for IC50: HEK293 cells, 2 hours incubation; for Fold NanoBRET IC50 RET over STK33 (in parentheses): selectivity vs STK33
# Method: as §1, §2, §3, §4
# T2 sequence (P49760 whole entry): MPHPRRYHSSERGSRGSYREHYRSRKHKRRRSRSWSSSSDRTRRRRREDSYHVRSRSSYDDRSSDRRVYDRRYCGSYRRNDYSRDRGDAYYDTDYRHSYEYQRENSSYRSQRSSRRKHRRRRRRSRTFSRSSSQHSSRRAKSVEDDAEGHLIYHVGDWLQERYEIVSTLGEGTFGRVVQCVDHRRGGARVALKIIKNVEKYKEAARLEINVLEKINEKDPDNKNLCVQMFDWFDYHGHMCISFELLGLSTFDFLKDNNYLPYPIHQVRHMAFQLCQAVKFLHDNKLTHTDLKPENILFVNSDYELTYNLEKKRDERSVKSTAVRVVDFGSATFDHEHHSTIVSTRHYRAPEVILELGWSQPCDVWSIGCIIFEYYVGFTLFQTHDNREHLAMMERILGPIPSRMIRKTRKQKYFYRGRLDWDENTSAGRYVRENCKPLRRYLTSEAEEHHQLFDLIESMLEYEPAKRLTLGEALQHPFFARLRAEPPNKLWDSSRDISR
# T4 sequence (P07949 29-1114): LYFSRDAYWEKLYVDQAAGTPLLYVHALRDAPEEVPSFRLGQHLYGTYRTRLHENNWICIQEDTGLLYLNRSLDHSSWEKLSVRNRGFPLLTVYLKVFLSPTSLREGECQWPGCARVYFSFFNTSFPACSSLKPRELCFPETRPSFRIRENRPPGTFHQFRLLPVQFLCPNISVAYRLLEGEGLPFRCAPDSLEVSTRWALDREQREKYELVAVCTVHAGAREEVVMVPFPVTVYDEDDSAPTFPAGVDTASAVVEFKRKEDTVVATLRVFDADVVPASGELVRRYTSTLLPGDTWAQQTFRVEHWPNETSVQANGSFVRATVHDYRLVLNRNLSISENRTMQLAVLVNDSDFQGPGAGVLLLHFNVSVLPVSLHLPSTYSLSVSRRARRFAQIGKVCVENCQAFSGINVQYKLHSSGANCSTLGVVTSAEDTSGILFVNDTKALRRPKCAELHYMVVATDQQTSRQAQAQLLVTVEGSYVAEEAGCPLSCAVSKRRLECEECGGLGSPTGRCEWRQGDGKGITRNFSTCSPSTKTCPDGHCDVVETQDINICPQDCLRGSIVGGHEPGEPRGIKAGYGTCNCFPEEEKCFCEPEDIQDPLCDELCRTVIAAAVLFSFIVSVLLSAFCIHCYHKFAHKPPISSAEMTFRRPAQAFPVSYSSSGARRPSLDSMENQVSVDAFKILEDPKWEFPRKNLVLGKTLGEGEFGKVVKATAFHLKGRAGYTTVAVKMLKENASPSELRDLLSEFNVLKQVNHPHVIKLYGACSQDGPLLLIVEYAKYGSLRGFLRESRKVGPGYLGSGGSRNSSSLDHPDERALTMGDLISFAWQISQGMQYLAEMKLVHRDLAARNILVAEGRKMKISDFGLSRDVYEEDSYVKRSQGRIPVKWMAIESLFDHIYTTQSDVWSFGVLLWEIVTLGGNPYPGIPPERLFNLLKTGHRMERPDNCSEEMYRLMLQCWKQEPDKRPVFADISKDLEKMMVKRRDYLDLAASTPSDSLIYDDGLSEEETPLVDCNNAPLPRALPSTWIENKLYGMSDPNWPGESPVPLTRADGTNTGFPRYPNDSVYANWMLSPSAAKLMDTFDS
# T1 sequence (Q9BYT3 whole entry): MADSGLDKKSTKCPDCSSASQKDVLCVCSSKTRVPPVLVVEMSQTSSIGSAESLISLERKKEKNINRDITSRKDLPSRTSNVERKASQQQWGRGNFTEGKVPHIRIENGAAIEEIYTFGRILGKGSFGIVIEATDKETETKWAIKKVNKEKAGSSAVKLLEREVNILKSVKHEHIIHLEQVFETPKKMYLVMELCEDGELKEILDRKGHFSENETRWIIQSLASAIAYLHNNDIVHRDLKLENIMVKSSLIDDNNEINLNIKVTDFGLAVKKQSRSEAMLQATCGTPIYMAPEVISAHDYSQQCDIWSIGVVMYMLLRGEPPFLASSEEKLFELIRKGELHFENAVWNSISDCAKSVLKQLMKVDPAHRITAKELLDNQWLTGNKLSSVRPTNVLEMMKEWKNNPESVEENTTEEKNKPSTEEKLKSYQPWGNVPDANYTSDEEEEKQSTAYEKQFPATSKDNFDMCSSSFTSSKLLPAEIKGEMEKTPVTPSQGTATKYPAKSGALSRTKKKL
# T3 sequence (P49759 whole entry): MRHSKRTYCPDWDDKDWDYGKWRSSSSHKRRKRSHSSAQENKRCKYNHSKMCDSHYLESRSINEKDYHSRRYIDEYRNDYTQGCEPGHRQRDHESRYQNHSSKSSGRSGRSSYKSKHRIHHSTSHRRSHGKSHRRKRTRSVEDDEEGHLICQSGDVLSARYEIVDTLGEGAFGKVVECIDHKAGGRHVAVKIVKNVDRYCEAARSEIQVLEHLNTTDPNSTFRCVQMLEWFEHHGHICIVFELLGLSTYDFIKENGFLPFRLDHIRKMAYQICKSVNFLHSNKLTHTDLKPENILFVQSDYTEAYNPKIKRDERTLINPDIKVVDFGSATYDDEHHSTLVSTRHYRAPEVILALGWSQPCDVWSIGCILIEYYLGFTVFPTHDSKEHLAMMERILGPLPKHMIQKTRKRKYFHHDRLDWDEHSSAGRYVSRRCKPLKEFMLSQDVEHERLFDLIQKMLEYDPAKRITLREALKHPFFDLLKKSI
# T5 sequence (Q9HAZ1 whole entry): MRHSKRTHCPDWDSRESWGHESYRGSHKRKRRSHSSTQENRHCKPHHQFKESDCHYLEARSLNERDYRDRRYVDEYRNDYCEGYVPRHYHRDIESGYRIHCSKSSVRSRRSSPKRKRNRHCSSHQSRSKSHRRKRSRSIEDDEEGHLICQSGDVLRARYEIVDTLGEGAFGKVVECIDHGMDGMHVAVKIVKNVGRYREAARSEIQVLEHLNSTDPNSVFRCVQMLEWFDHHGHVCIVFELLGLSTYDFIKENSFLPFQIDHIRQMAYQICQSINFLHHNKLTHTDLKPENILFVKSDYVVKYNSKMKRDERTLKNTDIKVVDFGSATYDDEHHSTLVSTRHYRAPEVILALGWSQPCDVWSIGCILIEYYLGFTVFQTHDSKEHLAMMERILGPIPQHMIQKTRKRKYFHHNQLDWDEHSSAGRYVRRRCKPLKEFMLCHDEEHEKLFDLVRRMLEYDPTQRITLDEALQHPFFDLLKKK
smiles,measurement,setting,value
O=C(c1ccc2[nH]nc(C#Cc3ccccc3-c3ccccc3)c2c1)N1CCC2(CCCCN2)C1 (stereo not drawn) [Compound S3],IC50,STK33 [1],52 nM
CN(C)C1CCN(C(=O)c2ccc3c(c2)c(C#Cc2ccccc2-c2ccccc2)nn3C)C1 (stereo not drawn) [Compound S8],kinase assay screening against STK33,STK33 [2],not passing
O=C(c1ccc2[nH]nc(C#Cc3ccccc3-c3ccccc3)c2c1)N1CC2(CCCCN2)C1 [Compound S6],IC50,STK33 [1],236 nM
NC1CCN(C(=O)c2ccc3[nH]nc(C#Cc4ccccc4-c4ccccc4)c3c2)C1 (stereo not drawn) [Compound S1],IC50,STK33 [1],46 nM
same,"Metabolic stability MLM, t1/2",[3],42 min
same,"Metabolic stability HLM, t1/2",[4],277 min
CN(C)C1CCN(C(=O)c2ccc3[nH]nc(C#Cc4cccc(-c5ccccc5)c4)c3c2)C1 (stereo not drawn) [Compound S9],IC50,STK33 [1],289 nM
same,Kd,STK33 [5],9.9 ± 2.3 nM
CN(C)[C@@H]1CCN(C(=O)c2ccc3[nH]nc(C#Cc4ccccc4-c4ccccc4)c3c2)C1 [CDD-2211],Ki,CLK2 [6],5.4 ± 0.4 nM
same,Ki,CLK1 [7],38.8 ± 5.5 nM
same,Ki,RET [8],0.47 ± 0.05 nM
same,Kd,CLK4 [9],2.5 ± 0.2 nM
same,"selectivity toward STK33 compared to CLK1, CLK2, CLK4, and RET",STK33 [1],> 10 fold
same,IC50,STK33 [1],5 nM
same,IC50,CLK4 [10],187 nM
same,Fold NanoBRET IC50 CLK4 over STK33 (in parentheses),CLK4 [10],37 X
same,IC50,CLK2 [11],48 nM
same,Fold NanoBRET IC50 CLK2 over STK33 (in parentheses),CLK2 [11],10 X
same,IC50,CLK1 [12],115 nM
same,Fold NanoBRET IC50 CLK1 over STK33 (in parentheses),CLK1 [12],23 X
same,IC50,RET [13],78 nM
same,Fold NanoBRET IC50 RET over STK33 (in parentheses),RET [13],16 X
same,half-life at 2 µM,[3],7 min
same,Kd,STK33 [5],0.018 nM
same,half-life at 2 µM,[4],10 min
CN(C)C1CCN(C(=O)c2ccc3[nH]nc(Cc4ccccc4-c4ccccc4)c3c2)C1 (stereo not drawn) [Compound S11],kinase assay screening against STK33,STK33 [2],not passing
CNC(=O)C1CCN(C2CCN(C(=O)c3ccc4[nH]nc(C#Cc5ccccc5-c5ccccc5)c4c3)C2)CC1 (stereo not drawn) [CDD-2110],Ki,CLK2 [6],27 ± 6.6 nM
same,Ki,CLK1 [7],234 ± 18 nM
same,Ki,RET [8],3.1 ± 0.3 nM
same,Kd,CLK4 [9],9.6 ± 1.2 nM
same,"selectivity toward STK33 compared to CLK1, CLK2, CLK4, and RET",STK33 [1],> 10 fold
same,IC50,STK33 [1],38 nM
same,fold more potent than published STK33 inhibitors in cellular assays,"STK33 [1]; vs compound 1, ML281, BRD8899",20- to 310 fold
same,IC50,CLK4 [10],544 nM
same,Fold NanoBRET IC50 CLK4 over STK33 (in parentheses),CLK4 [10],14 X
same,IC50,CLK2 [11],917 nM
same,Fold NanoBRET IC50 CLK2 over STK33 (in parentheses),CLK2 [11],24 X
same,IC50,CLK1 [12],1210 nM
same,Fold NanoBRET IC50 CLK1 over STK33 (in parentheses),CLK1 [12],32 X
same,IC50,RET [13],746 nM
same,Fold NanoBRET IC50 RET over STK33 (in parentheses),RET [13],20 X
same,half-life at 2 µM,[3],25 min
same,Kd,STK33 [5],0.1 nM
same,fold more potent than published STK33 inhibitors in biochemical assays,"STK33 [5]; vs compound 1, ML281, BRD8899",12- to 400 fold
same,half-life at 2 µM,[4],10 min

# — article PMC11842024, “Reversible male contraception by targeted inhibition of serine/threonine kinase 33” (Science (New York, N.Y.), 2024)
